This is an account of results in ChEMBL document CHEMBL4665757, “Design and synthesis of dual active neovibsanin derivatives based on a chemical structure merging method” (Bioorg Med Chem Lett, 2020).

SMILES strings stand for the structures. Activity calls are given as the source filed them. The calls are words filed in the database; no cut-off is given here.

Data set [1] concerns PC-12. The experiment in a line: Induction of neurite outgrowth in rat PC12 cells at 30 uM incubated for 4 days in presence of NGF by phase contrast microscopic analysis. Type of data set: functional, cell-based. Conditions: time 4.0 day.
Data set [2] has as its system PC-12. The experiment in a line: Induction of neurite outgrowth in rat PC12 cells at 30 uM incubated for 4 days by phase contrast microscopic analysis. Type of data set: functional, cell-based. Conditions: time 4.0 day.
Data set [3] can be described thus: Solubility in water. Type of data set: physicochemical. The settings on record: buffer.
Data set [4] relates to PC-12. The experiment in a line: Induction of neurite outgrowth in rat PC12 cells at 0.3 to 30 uM incubated for 4 days in presence of NGF by phase contrast microscopic analysis. The data set is classed as functional, cell-based. The settings on record: dose microM 0.3-30, time 4.0 day.

Regarding `COC1(C)C[C@@H]2OCC3=CCCC[C@]32O1` (stereo not given in full), the result in the data set on PC-12 [1] was Active.
As to `COc1ccc(/C=C/[C@@H]2CCC=C[C@H]2c2ccc(OC)c(OC)c2)cc1OC`, in the data set with PC-12 [2], the outcome was Active.
`COc1ccc(/C=C/[C@@H]2C[C@@]34OC(C)(O)C[C@@H]3OCC4=C[C@H]2c2ccc(OC)c(OC)c2)cc1OC` (mixture of isomers): in data set [3], the solubility entry is on record as “Insoluble”. In addition, the outcome with PC-12 [2] and in the data set on PC-12 [4] was Active.
